# Where a SMILES comes first, the peptide text is derived from it.
# Experiments:
# Format in all cases: cell-based
# [1] = tested on: Salmonella enterica serovar Typhimurium ATCC SL1344; conditions: ATCC SL1344, 1 h
# E. coli FVEC 638 = conditions: FVEC 638, 1 h
# [2] = tested on: Salmonella enterica serovar Tennessee; conditions: 1 h
# [3] = tested on: Salmonella enterica serovar Newport; conditions: 1 h
# [4] = tested on: Salmonella Infantis #129 B; conditions: 1 h
# E. coli J2210 = conditions: J2210, 1 h
# E. coli PUTI 379 = conditions: PUTI 379, 1 h
# [5] = tested on: Salmonella enterica serovar Enteritidis MH91989; conditions: serovar Enteritidis MH91989, 1 h
# E. coli FVEC 964 = conditions: FVEC 964, 1 h
# E. coli JW0013 = conditions: JW0013, 1 h
# E. coli JJ2489 = conditions: JJ2489, 1 h
# [6] = tested on: A431 human epidermoid carcinoma cells; experiment: Cytotoxicity assay; conditions: 10 μmol/L peptide, 24 h, MTT assay, duplicate, normalized to PBS
# [7] = tested on: MDA-MB-231 human breast adenocarcinoma cells; experiment: Cytotoxicity assay; conditions: 10 μmol/L peptide, 24 h, MTT assay, duplicate, normalized to PBS
SMILES,MIC [1] [µM],MIC (E. coli FVEC 638) [µM],MIC [2] [µM],MIC [3] [µM],MIC [4] [µM],MIC (E. coli J2210) [µM],MIC (E. coli PUTI 379) [µM],MIC [5] [µM],MIC (E. coli FVEC 964) [µM],MIC (E. coli JW0013) [µM],MIC (E. coli JJ2489) [µM],toxicity to A431 cells [6],toxicity towards MDA-MB-231 [7]
"CC[C@H](C)[C@H](NC(=O)[C@H](Cc1ccc(O)cc1)NC(=O)[C@@H](NC(=O)[C@@H]1CCCN1C(=O)[C@H](CCCNC(=N)N)NC(=O)[C@H](CC(N)=O)NC(=O)[C@H](CC(N)=O)NC(=O)CN)C(C)C)C(=O)N1CCC[C@H]1C(=O)N[C@@H](CCC(N)=O)C(=O)N1CCC[C@H]1C(=O)N[C@@H](CCCNC(=N)N)C(=O)N1CCC[C@H]1C(=O)N1CCC[C@H]1C(=O)N[C@@H](Cc1c[nH]cn1)C(=O)N1CCC[C@H]1C(=O)N[C@@H](CCCNC(=N)N)C(=O)N[C@@H](CC(C)C)C(=O)O [Api_WT, reference compound] (H-GNNRPVYIPQPRPPHPRL-OH)",0.048 ± 0.011,0.048 ± 0.011,0.048 ± 0.011,0.031 ± 0.014,0.048 ± 0.011,0.048 ± 0.011,0.048 ± 0.011,0.048 ± 0.011,0.048 ± 0.011,0.024 ± 0.006,0.031 ± 0.014,–,–
CC[C@H](C)[C@H](NC(=O)[C@@H]1CCCN1C(=O)[C@H](CCCCN)NC(=O)[C@@H]1CCCN1C(=O)[C@@H]1CCCN1C(=O)[C@@H](NC(=O)[C@@H]1CCCN1C(=O)[C@H](CCCNC(=N)N)NC(=O)[C@@H]1CCCN1C(=O)[C@H](CCCNC(=N)N)NC(=O)[C@H](Cc1ccc(O)cc1)NC(=O)[C@H](CO)NC(=O)CNC(=O)[C@H](CCCCN)NC(=O)[C@H](CC(=O)O)NC(=O)[C@@H](N)C(C)C)[C@@H](C)O)C(=O)N[C@@H](Cc1ccc(O)cc1)C(=O)N[C@@H](CC(N)=O)C(=O)N[C@@H](CCCNC(=N)N)C(=O)N[C@@H](CC(N)=O)C(=O)O [Pyr_L7R/R14K] (H-VDKGSYRPRPTPPKPIYNRN-OH),–,–,–,–,–,–,–,–,–,–,–,no toxicity,None of these PrAMPs exhibited any toxicity
"CC[C@H](C)[C@H](NC(=O)[C@@H]1CCCN1C(=O)[C@H](CCCNC(=N)N)NC(=O)[C@@H]1CCCN1C(=O)[C@@H]1CCCN1C(=O)[C@@H](NC(=O)[C@@H]1CCCN1C(=O)[C@H](CCCNC(=N)N)NC(=O)[C@@H]1CCCN1C(=O)[C@H](CC(C)C)NC(=O)[C@H](Cc1ccc(O)cc1)NC(=O)[C@H](CO)NC(=O)CNC(=O)[C@H](CCCCN)NC(=O)[C@H](CC(=O)O)NC(=O)[C@@H](N)C(C)C)[C@@H](C)O)C(=O)N[C@@H](Cc1ccc(O)cc1)C(=O)N[C@@H](CC(N)=O)C(=O)N[C@@H](CCCNC(=N)N)C(=O)N[C@@H](CC(N)=O)C(=O)O [Pyr_WT, reference compound] (H-VDKGSYLPRPTPPRPIYNRN-OH)",–,–,–,–,–,–,–,–,–,–,–,no toxicity,None of these PrAMPs exhibited any toxicity
